Laboratory results: patent US6469065B1, “Nitrosated and nitrosylated α-adrenergic receptor antagonist, compositions and methods of use” (NitroMed, Inc., priority 1996, dated 2002)

Key:
anesthetized rabbit [1] = experiment: In vivo Comparative Erectile Responses—II: intracavernosal blood pressure (ICP) and duration; parameters: species or system White New Zealand male rabbits
Method: White New Zealand male rabbits (2.6-3.0 kg) were anesthetized with pentobarbital sodium (30 mg/kg). The femoral artery was exposed and indwelled with PE 50 tubing connected to a transducer for recording systemic arterial blood pressure. The ventral aspect of the penis was then exposed via surgical cut and intracavernosal blood pressure was measured using a 23 gauge needle inserted to the corpus cavernosum. The contralateral corpus cavemosum was implanted with a 23 gauge needle for the administration of drugs.
Following all surgical procedures, rabbits were allowed to rest for 10 minutes during which intracavernosal blood pressure (ICP) and mean arterial blood pressure (MABP) were continuously recorded.
Drugs at various concentrations were prepared as aqueous solution (injection volume of 200 μL). Following drug injection the tubing was flushed with 100 μL distilled water. All drug treatments were administered after stable intracavernosal and systemic blood pressures were established. If an increase in intracavernosal blood pressure (ICP) was observed, the effect was monitored throughout its entire duration.
The following parameters were obtained from each experimental recording: (i) Maximum ICP (mm Hg), (ii) Duration (minutes), defined as the time in minutes, that the increase in ICP is greater than the 50% difference between baseline and maximum response. Data were analyzed using ANOVA statistical analysis (p<0.05).

anesthetized rabbit [2] = experiment: In Vivo Comparative Erectile Responses—I: intracavernosal pressure after intracavernosal injection; parameters: species or system Male New Zealand white rabbits
Method: (§1) Male New Zealand white rabbits weighing 2.5 kg were used as the animal model. Animals were first relaxed with an i.m. injection of 25 mg/kg ketamine prior to anesthesia with a bolus i.v. injection of 10 mg/kg Profol and maintained with i.v. infusion at 0.5 mg/kg/minutes. Ventilation of the animals was performed with 1% halothane plus 0.8 L/min O2 and 1 L/min N2O. A 22 gauge angiocatheter was placed in the femoral artery for measurement of systemic blood pressure. A dorsal incision was made in the penis and the corpora cavemosum exposed and cannulated with a 21 gauge butterfly needle to measure intracavernosal pressure.
(§2) Drugs at various concentrations were delivered intracavernosally at a volume of 150 μl through a 25 gauge needle. A 150 μl solution of a mixture of papaverine ([…]), phentolamine ([…]) and prostaglandin El (10 μg/ml) (pap/phent/PGE1) was injected in the corpora as a standard solution for comparison with the response of yohimbine, Example 1, Example 2, and the combination of yohimbine and Example 1. This pap/phent/PGE1 mixture is considered to cause a maximal erection-inducing effect.

anesthetized rabbit [3] = experiment: In Vivo Comparative Erectile Responses—I: systemic blood pressure after intracavernosal injection; parameters: species or system Male New Zealand white rabbits; details: 500 μg, FIG. 5A
Method: as §1, §2

Compound: Cc1cc(OCCN(C)C)c(C(C)C)cc1OC(=O)CCC(=O)OCCC1(SN=O)C2CC3CC(C2)CC1C3.O=C(O)/C=C/C(=O)O (centres unmarked) [Example 10, 4-[2-(dimethylamino)ethoxy]-2-methyl-5-(methylethyl)phenyl 2-[2-(nitrosothio)adamantan-2-yl]ethyl butane-1,4-dioate, Fumaric Acid Salt]
- peak erectile response, increase of ICP (magnitude) (anesthetized rabbit [1]; 1.07 mg, FIG. 10): moderate
- duration of the erectile response (anesthetized rabbit [1]; 1.07 mg, FIG. 11): short-lasting
- duration of increase in intracavernosal pressure (anesthetized rabbit [1]; 2.13 mg): robust effect
- magnitude of increase in intracavernosal pressure (anesthetized rabbit [1]; 2.13 mg): robust effect
- duration of increase in intracavernosal pressure (anesthetized rabbit [1]; 4.26 mg): robust effect
- duration of the erectile response (anesthetized rabbit [1]; 4.26 mg): exceeded 120 minutes
- magnitude of increase in intracavernosal pressure (anesthetized rabbit [1]; 4.26 mg): robust effect

Compound: COC(=O)[C@@H]1[C@H]2C[C@H]3c4[nH]c5ccccc5c4CCN3C[C@@H]2CC[C@@H]1O [yohimbine, reference compound]
- percent peak erectile response relative to pap/phent/PGE1 (anesthetized rabbit [2]; 150 μg and 500 μg, FIG. 1): dose dependently induced erectile response
- duration of the erectile response (anesthetized rabbit [2]; submaximal (150 μg) and maximal (500 μg) efficacy doses, FIG. 2): very short duration of action

Compound: Cc1cc(OCCN(C)C)c(C(C)C)cc1OC(=O)CC(C)(C)SN=O.Cl [Example 6, 4-[2-(Dimethylamino)ethoxy]-2-methyl-5-(methylethyl)phenyl 3-methyl-3-(nitrosothio)butanoate Hydrochloride]
- percent peak erectile response relative to pap/phent/PGE1 (anesthetized rabbit [2]; 1 mg dose): more efficacious than 1 mg moxisylyte
- duration of the erectile response (anesthetized rabbit [2]; 1 mg, FIG. 7): longer duration of erectile response compared to 1 mg moxisylyte
- duration of the erectile response (anesthetized rabbit [2]; 2 mg, FIG. 7): much longer duration of action compared to 2 mg moxisylyte

Compound: 4-[2-(Dimethylamino)ethoxy]-2-methyl-5-(methylethyl)phenyl 2-({N-[2-methyl-2-(nitrosothio)propyl]carbamoyl}methoxy)acetate, Fumaric Acid Salt [Example 9]
- doses needed to produce a robust increase of ICP (anesthetized rabbit [1]; 0.2-1.6 mg tested, FIG. 8 to FIG. 11): lower than the doses of Example 10
- duration of the erectile response (anesthetized rabbit [1]; 0.2-1.6 mg tested, FIG. 9): somewhat shorter than that of Example 10

Compound: N[C@@H](CCC(=O)N[C@@H](CSN=O)C(=O)NCC(=O)O)C(=O)O [Example 1, 4-(N-{(1R)-1-[N-(carboxymethyl)carbamoyl]-2-(nitrosothio)ethyl}carbamoyl)(2S)-2-aminobutanoic Acid]
- percent peak erectile response relative to pap/phent/PGE1 (anesthetized rabbit [2]; 500 μg dose): near maximal response
- duration of the erectile response (anesthetized rabbit [2]; 500 μg, FIG. 2): much longer duration of action

Compound: 2-Acyl-17α(3-methyl-3-(nitrosothio)butanoxy)yohimban-16α-carboxylic Acid methyl ester hydrochloride Salt [Example 2]
- duration of the erectile response (anesthetized rabbit [2]; 500 μg and 1 mg, FIG. 4): longer duration of action compared to yohimbine
- percent peak erectile response relative to pap/phent/PGE1 (anesthetized rabbit [2]; 500 μg dose): equipotent to the standard dose of pap/phent/PGE1
- percent peak erectile response relative to pap/phent/PGE1 (anesthetized rabbit [2]; 1 mg dose): at least equal to or more efficacious than the standard dose of the pap/phent/PGE1 mixture
- effect on systemic blood pressure (anesthetized rabbit [3]): did not produce any effect on systemic blood pressure
